Data as given in PubChem BioAssay (NCI).
Values joined by “and” are separate entries in the source; they are usually repeats but may differ in a detail not shown here. Equal entries are not always repeated.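 Step 1: Grow cells in 96-well plates. Step 2: Expose to compound for 48 hours at 5 concentrations. Step 3: Interpolate endpoints linearly; if unreached, use highest concentration. The concentration for 50% growth inhibition is given as GI50. The concentration for full growth arrest is given as TGI.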

Key:
Test in all cases: NCI anticancer screen, dose series, 48 h
UACC-257 melanoma = system: UACC-257 melanoma
SK-MEL-28 melanoma = system: SK-MEL-28 melanoma
SNB-75 CNS = system: SNB-75 CNS
HOP-92 NSCLC = system: HOP-92 NSCLC
SR leukemia = system: SR leukemia
786-0 renal = system: 786-0 renal
SW-620 colon = system: SW-620 colon
SK-MEL-5 melanoma = system: SK-MEL-5 melanoma
BT-549 breast = system: BT-549 breast
HS 578T breast = system: HS 578T breast

Structure (SMILES) | TGI (UACC-257 melanoma) | TGI (SK-MEL-28 melanoma) [µM] | TGI (SNB-75 CNS) [µM] | TGI (HOP-92 NSCLC) [µM] | TGI (SR leukemia) | TGI (786-0 renal) [µM] | TGI (SW-620 colon) | TGI (SK-MEL-5 melanoma) | GI50 (UACC-257 melanoma) [µM] | GI50 (BT-549 breast) [µM] | TGI (BT-549 breast) | GI50 (SK-MEL-28 melanoma) [µM] | GI50 (HOP-92 NSCLC) [µM] | GI50 (SR leukemia) [µM] | GI50 (786-0 renal) [µM] | GI50 (SW-620 colon) [µM] | GI50 (HS 578T breast) [µM] | TGI (HS 578T breast) [µM] | GI50 (SK-MEL-5 melanoma) [µM] | GI50 (SNB-75 CNS) [µM]
CC1CC(c2ccc(Cl)c(Cl)c2)=Nc2ccccc2S1 (configuration not stated) | > 100 µM | > 100 | > 100 | > 100 | > 100 µM | > 100 | > 100 µM | > 100 µM |  |  |  |  |  |  |  |  |  |  |  | 
COc1ccc(/C=C2/CN(CCC#N)C/C(=C\c3ccc(OC)cc3)C2=O)cc1 | 7.44 µM | 4.3 |  | 20.8 | > 100 µM | 4.33 | 6.72 µM | 2.74 µM | 2.63 | 2.1 | 4.73 µM | 1.99 | 1.85 | 1.07 | 1.99 | 2.15 | 2.98 | 64.4 | 1.39 | 
CCN(CCO)CCCOc1ccc2c(Nc3cc(CC(=O)Nc4cccc(F)c4)[nH]n3)ncnc2c1 | 29.2 µM and > 2.56 µM | 31.4 |  | 33.3 | 28 µM and > 3.87 µM | > 100 | 29.8 µM and > 4.11 µM | 48.5 µM and > 3.51 µM | 12.4 | 13 | 29.7 µM and > 3.6 µM | 16.4 | 10.6 |  | > 70.1 | 7.23 | 8.15 | > 60.5 | 19.8 | 
Cc1ccc2nc3c(C)cc(=O)cc-3sc2c1 | 59.2 µM | 73 | 69.2 | 76.7 | 46.7 µM | 35.4 | 31.1 µM | 29 µM |  |  |  |  |  |  |  |  |  |  |  | 
NCC1(N2CCOCC2)C2CCCC21CNc1ccccc1 (configuration not stated) | > 100 µM | > 100 | > 100 | > 100 | > 100 µM | > 100 | > 100 µM | > 100 µM |  |  |  |  |  |  |  |  |  |  |  | 
COC(=O)C1(O)c2ccccc2N=C2C1CCN2C (configuration not stated) | > 100 µM | > 100 | 87.8 | > 100 | > 100 µM | > 100 | > 100 µM | > 100 µM |  |  |  |  |  |  |  |  |  |  |  | 
O=C1CC[C@@H](NC(=O)Cc2ccccc2)C(=O)N1 | > 100 µM | > 100 | > 100 | > 100 | > 100 µM | > 100 | > 100 µM | > 100 µM |  |  |  |  |  |  |  |  |  |  |  | 
COC(=O)NC(=O)c1cn(C2CCCCC2)c(=O)[nH]c1=O | > 100 µM | > 100 | > 100 | > 100 | > 100 µM | > 100 | > 100 µM | > 100 µM |  |  |  |  |  |  |  |  |  |  |  | 
O=C(CSc1ncc(-c2ccccc2)n1-c1ccccc1)Nc1ccc(-c2nc3ccccc3s2)cc1 |  |  | 29.6 | 83.1 |  | > 100 |  | > 100 µM |  |  |  |  | 22.6 |  | 5.34 |  | 4.89 | 80.8 | > 100 | 11.1
COc1cc(/C=C/c2ccccn2)cc(OC)c1OC | > 10 µM | > 10 | > 10 | > 10 |  | > 10 | > 10 µM | > 10 µM |  |  | > 10 µM |  |  |  |  |  |  | > 10 |  | 
c1ccc2c(c1)N=C(c1ccc3ccccc3c1)CC(c1cccc3ccccc13)S2 (configuration not stated) | > 100 µM | > 100 | > 100 |  |  | > 100 | > 100 µM | > 100 µM |  |  |  |  |  |  |  |  |  |  |  | 
NC(=O)c1ncn(Cc2ccccc2)c1CNC(N)=S |  | > 100 | > 100 |  | > 100 µM | > 100 | > 100 µM | > 100 µM |  |  |  |  |  |  |  |  |  |  |  | 
CC1(C)CC(N2CCN(C3CC(C)(C)NC(C)(C)C3)CC2)CC(C)(C)N1 | > 100 µM | > 100 | > 100 | > 100 | > 100 µM | > 100 | > 100 µM | > 100 µM |  |  |  |  |  |  |  |  |  |  |  | 
O=C1N=C(Nc2nc(-c3csc(NC4=NC(=O)/C(=C\c5ccc(Cl)cc5)S4)n3)cs2)S/C1=C/c1ccc(Cl)cc1 | 18.1 µM | > 50 |  | 28.5 |  | 12 | > 50 µM | 41 µM | 5.14 |  |  | 42.8 | 8.61 |  | 1.6 | 39 | > 50 | > 50 | 3.83 | 
Cc1ccc(NC(=O)C(=O)CC(=O)c2ccccc2)cc1C | > 100 µM | > 100 | > 100 | > 100 |  | > 100 | > 100 µM | > 100 µM |  |  |  |  |  |  |  |  |  |  |  | 
COC(=O)C1(C)CCCC2(C)c3cc(OC)ccc3C(=O)C(Br)C12 (configuration not stated) | > 10 µM | > 10 |  | > 10 | > 10 µM | 4.21 | 4.39 µM | > 10 µM |  |  | > 10 µM |  |  |  |  |  |  | > 10 |  | 
Cc1cc(C#Cc2ccccc2)ccc1-n1c(/C=C/c2cc(O)ccc2O)nc2ccccc2c1=O | 2.94 µM | 2.87 | 2.78 | 4.33 | 2.87 µM | 3.15 | 3.51 µM | 2.64 µM | 1.56 |  |  | 1.53 | 1.54 | 1.1 | 1.74 | 1.71 | 1.54 | 7.95 | 1.35 | 1.3
COc1cccc(/C=C\c2ccnc3ccccc23)c1 | > 10 µM | > 10 | > 10 | > 10 |  | > 10 | > 10 µM | > 10 µM |  |  | > 10 µM |  |  |  |  |  |  | > 10 |  | 
O=C1c2ccccc2C(=O)c2c1ccc1c2N=C(c2ccc(Br)cc2)CC(c2cccc3ccccc23)N1 (configuration not stated) | > 100 µM | > 100 | > 100 |  | > 100 µM | > 100 | > 100 µM | > 100 µM |  |  |  |  |  |  |  |  |  |  |  | 
O=C(NC1C(=O)NNC1c1ccccc1Cl)c1ccccc1 (configuration not stated) | > 100 µM | > 100 | > 100 | > 100 | > 100 µM | > 100 | > 100 µM | > 100 µM |  |  |  |  |  |  |  |  |  |  |  | 
Cn1cc(C2=C(c3c(S(C)=O)n(C)c4ccccc34)C(=O)NC2=O)c2ccccc21 (configuration not stated) | > 25 µM | > 25 | 22.3 |  | 24.3 µM | > 25 | > 25 µM | > 25 µM | > 25 | 4.88 | > 25 µM | 19.1 |  | 2.55 | > 19.9 | 7.78 | 5.57 | 24.9 | 6.96 | 5.8
